“And” between values parts separate entries of the source, which are not always exact repeats. Identical values can stand only once. Like-named read-outs stand apart in the source and are kept apart here.
Assays:
HIV-1 protease [1] = target: T1, HIV-1 protease (Human immunodeficiency virus type 1 group M subtype B, UniProt P04585); assay: biochemical; settings: read-out: HIV Protease FITC Assay Ki
Procedure, shortened: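 Biotinylated, FITC-labelled peptide substrate cleaved in 0.1 M sodium acetate pH 5.5, 1.0 M NaCl, 0.05% NP-40, room temperature. Filtered labelled product read by fluorescence; nonlinear least-squares fit.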

HIV-1 protease [2] = target: T1, HIV-1 protease; assay: biochemical; settings: read-out: Protease % Inhib
Procedure, shortened: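 A substrate biotinylated at the N-terminal arginine and FITC-labelled at the C-terminal lysine was incubated with HIV-1 protease (10 μl of 0.1 μM) and compound for 1 h in the dark at room temperature. Buffer was 0.1 M sodium acetate pH 5.5, 1.0 M NaCl, 0.05% NP-40. Labelled product was separated from substrate using streptavidin beads and filtration, and the fluorescence gave percent inhibition.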

SMILES | Ki (HIV-1 protease [1]) [nM] | inhibition at 0.123 µM (HIV-1 protease [2]) [%] | inhibition at 0.37 µM (HIV-1 protease [2]) [%] | inhibition at 1.1 µM (HIV-1 protease [2]) [%] | inhibition at 3.3 µM (HIV-1 protease [2]) [%] | inhibition at 10 µM (HIV-1 protease [2]) [%] | inhibition at 30 µM (HIV-1 protease [2]) [%] | Ki (HIV-1 protease [1]; Table I) | inhibition at 0.123 µM (HIV-1 protease [2]; Table I, Dose 0.123 μM) [%] | inhibition at 0.37 µM (HIV-1 protease [2]; Table I, Dose 0.370 μM) [%] | inhibition at 1.1 µM (HIV-1 protease [2]; Table I, Dose 1.100 μM) [%] | inhibition at 3.3 µM (HIV-1 protease [2]; Table I, Dose 3.300 μM) [%] | inhibition at 10 µM (HIV-1 protease [2]; Table I, Dose 10.000 μM) [%] | inhibition at 30 µM (HIV-1 protease [2]; Table I, Dose 30.000 μM) [%] | inhibition at 0.87 µM (HIV-1 protease [2]; Table I, Dose 0.870 μM) [%]
O=c1oc2c(c(O)c1C(c1cccc(CS(=O)(=O)c3ccccc3)c1)C1CC1)CCCCCC2 (stereo not shown) [Example 10, 3-[Cyclopropyl[3-[(phenylsulfonyl)methyl]phenyl]methyl]-5,6,7,8,9,10-hexahydro-4-hydroxy-2H-Cycloocta[b]pyran-2-one] | 5.71 | 102 | 112 | 116 | 119 | 129 | 130 | – | – | – | – | – | – | – | –
N#Cc1ccc(S(=O)(=O)Cc2cccc(C(c3c(O)c4c(oc3=O)CCCCCC4)C3CC3)c2)cc1 (stereo not shown) [Example 11, 3-[cyclopropyl[3-[(4-cyanophenylsulfonyl)methyl]phenyl]methyl]-5,6,7,8,9,10-hexahydro-4-hydroxy-2H-cycloocta[b]pyran-2-one] | – | – | – | – | – | – | – | 1.9 nM | 78.9 | 95.3 | 100 | 95.1 | 99.7 | 104 | –
O=c1oc2c(c(O)c1C(c1cccc(CS(=O)(=O)c3ccc(F)cc3)c1)C1CC1)CCCCCC2 (stereo not shown) [Example 12, 3-[cyclopropyl[3-[(4-fluorophenylsulfonyl)methyl]phenyl]methyl]-5,6,7,8,9,10-hexahydro-4-hydroxy-2H-cycloocta[b]pyran-2-one] | – | – | – | – | – | – | – | 2.15 nM | 75.7 | 87.2 | 91.8 | 91.1 | 94.7 | 95.7 | –
Cc1ccc(S(=O)(=O)Cc2cccc(C(c3c(O)c4c(oc3=O)CCCCCC4)C3CC3)c2)cc1 (stereo not shown) [Example 13, 3-[cyclopropyl[3-[(4-methylphenylsulfonyl)methyl]phenyl]methyl]-5,6,7,8,9,10-hexahydro-4-hydroxy-2H-cycloocta[b]pyran-2-one] | – | – | – | – | – | – | – | 4.15 nM | 68.9 | 88.1 | 94 | 95.5 | 98.6 | 104 | –
O=C(O)c1ccc(S(=O)(=O)Cc2cccc(C(c3c(O)c4c(oc3=O)CCCCCC4)C3CC3)c2)cc1 (stereo not shown) [Example 14, 3-[cyclopropyl[3-[(4-carboxyphenylsulfonyl)methyl]phenyl]methyl]-5,6,7,8,9,10-hexahydro-4-hydroxy-2H-cycloocta[b]pyran-2-one] | – | – | – | – | – | – | – | 6.88 nM | 65.7 | 88 | 96.8 | 96.6 | 102 | 106 | –
Cn1ccnc1S(=O)(=O)Cc1cccc(C(c2c(O)c3c(oc2=O)CCCCCC3)C2CC2)c1 (stereo not shown) [Example 15, 3-[cyclopropyl[3-[(2-(1-methylimidazoyl)sulfonyl)methyl]phenyl]methyl]-5,6,7,8,9,10-hexahydro-4-hydroxy-2H-cycloocta[b]pyran-2-one] | – | – | – | – | – | – | – | 2.8 nM | 77.6 | 88.5 | 92.4 | 94 | 95.8 | 99.2 | –
CCCC1(CCc2ccccc2)CC(O)=C(C(CC)c2cccc(NS(=O)(=O)c3ccc(C#N)cc3)c2)C(=O)O1 (stereo not shown) [Example 40, 4-Cyano-N-[3-[1-(4-hydroxy-2-oxo-6-phenethyl-6-propyl-5,6-dihydro-2H-pyran-3-yl)-propyl]-phenyl]-benzenesulfonamide] | – | – | – | – | – | – | – | 10.8 nM | 59.6 | 102 | 98.7 | 105 | 88.7 | 72.7 | –
CCCC1(CCc2ccccc2)CC(O)=C(C(CC)c2cccc(NS(=O)(=O)c3cn(C)cn3)c2)C(=O)O1 (stereo not shown) [Example 41, N-[3-[1-(4-hydroxy-2-oxo-6-phenethyl-6-propyl-5,6-dihydro-2H-pyran-3-yl)-propyl]-phenyl]-1-methyl-1H-imidazole-4-sulfonamide] | 3.17 | 103 | 102 | 104 | 101 | 85.9 | 72.8 | – | – | – | – | – | – | – | –
CCCC1(CCc2ccccc2)CC(O)=C(C(CC)c2cccc(NS(=O)(=O)c3cccc4cccnc34)c2)C(=O)O1 (stereo not shown) [Example 42, N-[3-[1-(4-hydroxy-2-oxo-6-phenethyl-6-propyl-5,6-dihydro-2H-pyran-3-yl)-propyl]-phenyl]-8-quinolinesulfonamide] | 3.1 | 86.2 | 103 | 98.3 | 102 | 91.4 | 76.1 | – | – | – | – | – | – | – | –
CCCC1(CCC)CC(O)=C(C(CC)c2cccc(NS(=O)(=O)c3cccc4cccnc34)c2)C(=O)O1 (stereo not shown) [Example 43, N-[3-[1-(4-hydroxy-2-oxo-6,6-dipropyl-5,6-dihydro-2H-pyran-3-yl)-propyl]-phenyl]-8-quinolinesulfonamide] | – | – | – | – | – | – | – | 3.65 nM | 85.6 | 99 | 95.7 | 96.7 | 102 | 85.6 | –
CCCC1(CCC)CC(O)=C(C(CC)c2cccc(NS(=O)(=O)c3cn(C)cn3)c2)C(=O)O1 (stereo not shown) [Example 44, N-[3-[1-(4-hydroxy-2-oxo-6,6-dipropyl-5,6-dihydro-2H-pyran-3-yl)-propyl]-phenyi]-1-methyl-1H-imidazolesulfonamide] | – | – | – | – | – | – | – | 1.8 nM | 98.4 | 114 | 120 | 113 | 102 | 80 | –
CCCC1(CCC)CC(O)=C(C(CC)c2cccc(NS(=O)(=O)c3ccc(F)cc3)c2)C(=O)O1 (stereo not shown) [Example 45, 4-Fluoro-N-[3-[1-(4-hydroxy-2-oxo-6,6-dipropyl-5,6-dihydro-2H-pyran-3-yl)-propyl]-phenyl]-benzenesulfonamide] | – | – | – | – | – | – | – | 4.78 nM | 82.2 | 94.4 | 101 | 103 | 89.8 | 67.5 | –
CCCC1(CCC)CC(O)=C(C(CC)c2cccc(NS(=O)(=O)c3ccc(C#N)cc3)c2)C(=O)O1 (stereo not shown) [Example 46, 4-Cyano-N-[3-[1-(4-hydroxy-2-oxo-6,6-dipropyl-5,6-dihydro-2H-pyran-3-yl)-propyl]-phenyl]-benzenesulfonamide] | – | – | – | – | – | – | – | 2.92 nM | 85.9 | 99.2 | 103 | 97.6 | 91.5 | 74.1 | –
CCC(C1=C(O)CC(CC(C)C)(CC(C)C)OC1=O)c1cccc(NS(=O)(=O)c2cn(C)cn2)c1 (stereo not shown) [Example 47, N-[3-[1-(4-hydroxy-6,6-diisobutyl-2-oxo-5,6-dihydro-2H-pyran-3-yl)-propyl]-phenyl]-1-methyl-1H-imidazole-4-sulfonamide] | – | – | – | – | – | – | – | 3 nM and 2.98 nM | 66.3 | – | 94.7 | 101 | 98.7 | 84.5 | 86.8
CCCC1(CCC)CC(O)=C(C(c2cccc(NS(=O)(=O)c3cn(C)cn3)c2)C2CC2)C(=O)O1 (stereo not shown) [Example 48] | – | – | – | – | – | – | – | 0.52 nM | 111 | 104 | 110 | 89.3 | 111 | 105 | –
CCCC1(CCC)CC(O)=C(C(c2cccc(NS(=O)(=O)c3cccc4cccnc34)c2)C2CC2)C(=O)O1 (stereo not shown) [Example 49] | – | – | – | – | – | – | – | 0.96 nM | 111 | 120 | 120 | 106 | 108 | 112 | –

Source: patent US6169181A, “Compounds useful to treat retroviral infections” (Pharmacia & Upjohn Company, priority 1998, dated 2001)
